Test results from patent US20230391772A1, “METHODS AND COMPOSITIONS FOR TARGETED PROTEIN DEGRADATION” (Ranok Therapeutics (Hangzhou) Co. Ltd., priority 2020, published 2023).

Key:
KRAS(G12C) [1] = molecular target: T1, KRAS(G12C) (Homo sapiens, UniProt P01116, G12C); assay: KRAS(G12C)/SOS1 homogeneous time-resolved fluorescence (HTRF) assay; design: purchased Cisbio 63ADK000CB16PEG; conditions: absence of GTP, 4° C. for 3 hr, read-out: KRAS (G12C) binding
Summary of the method: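 HTRF kit measuring compound-induced block of KRAS(G12C)-SOS1 interaction without GTP. Compounds tested as 3-fold serial dilutions down to 1.02 nM, incubated with reaction components 3 h at 4 °C in sealed plates before fluorescence read.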

[2] = system: MIA PaCa-2 human pancreatic carcinoma; assay: MIA PaCa-2 CCK-8 proliferation assay; assay type: cell-based; conditions: Homo sapiens, MIA PaCa-2, 72 h, MIA PaCa-2 cells
Summary of the method: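 KRAS(G12C) lines were used: MIA PaCa-2 with 2 copies, and NCI-H358 and NCI-H23 with 1 copy each. Cells were treated with 3-fold compound dilutions from 20 μM to 1.02 nM, and proliferation was read by CCK-8 absorbance. % inhibition was calculated against DMSO-treated cells after subtracting the cell-free medium blank.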

HSP90a protein = molecular target: T2, HSP90a protein (Homo sapiens, UniProt P07900); assay: HSP90α-binding fluorescent polarization (FP) assay, BODIPY-labeled RNK04010 probe; conditions: FP competition with RNK04010 (BODIPY-labeled), 5 nM, 300 min at 25° C.
T2 construct: purchased BPS Bioscience 50298
Summary of the method: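 Displacement of a 5 nM fluorescent HSP90 ligand from the N-terminal HSP90a domain by FP. Incubation ran at 25° C: 120 min for the FITC-geldanamycin tracer, 300 min for the BODIPY-conjugated triazolone RNK04010.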

KRAS(G12C) [3] = molecular target: T1, KRAS(G12C); assay: KRAS(G12C) Western blot protein degradation assay in LU65A cells; assay type: cell-based; design: LU65A human lung cancer cell line, which expresses KRAS(G12C); host or cells: LU65A; conditions: 6 hr
Summary of the method: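 Cells treated with compound at various concentrations at 37 °C for 48 hr (MIA PaCa-2) or 6 hr (LU65A), then lysed in RIPA. Protein-normalized lysates immunoblotted for KRAS with β-actin, fluorescence quantified; DC50 is the concentration giving 50% of maximal KRAS degradation.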

T1 sequence (P01116 1-188 isoform P01116-2 G12C): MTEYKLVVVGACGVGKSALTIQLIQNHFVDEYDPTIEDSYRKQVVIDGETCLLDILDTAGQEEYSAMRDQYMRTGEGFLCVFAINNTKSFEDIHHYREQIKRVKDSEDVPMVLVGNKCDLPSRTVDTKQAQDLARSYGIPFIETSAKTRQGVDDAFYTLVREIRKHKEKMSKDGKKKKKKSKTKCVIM

SMILES	IC50 (KRAS(G12C) [1]) [nM]	EC50 [2] [nM]	IC50 (HSP90a protein) [nM]	DC50 (KRAS(G12C) [3]) [nM]
C=CC(=O)N1CCN(c2nc(OC[C@@H]3C[C@H](C(=O)NCCc4ccc(CN5CCC(Cc6ccc(-n7c(C(=O)NCC(F)(F)F)nnc7-c7cc(C(C)C)c(O)cc7O)cc6)CC5)cc4)CN3C)nc3c2CCN(c2cccc4cccc(Cl)c24)C3)C[C@@H]1CC#N [Compound 346, 4-{4-[(1-{[4-(2-{[(3S,5S)-5-({[7-(8-chloronaphthalen-1-yl)-4-[(3S)-3-(cyanomethyl)-4-(prop-2-enoyl)piperazin-1-yl]-5H,6H,8H-pyrido[3,4-d]pyrimidin-2-yl]oxy}methyl)-1-methylpyrrolidin-3-yl]formamido}ethyl)phenyl]methyl}piperidin-4-yl)methyl]phenyl}-5-(2,4-dihydroxy-5-isopropylphenyl)-N-(2,2,2-trifluoroethyl)-1,2,4-triazole-3-carboxamide]	< 100	100 to 1000	< 100	100 to 1000
C=CC(=O)N1CCN(c2nc(OC[C@@H]3C[C@H](C(=O)N4CCN(Cc5ccc(-n6c(C(=O)NCC(F)(F)F)nnc6-c6cc(C)c(O)cc6O)cc5)CC4)CN3C)nc3c2CCN(c2cccc4cccc(Cl)c24)C3)C[C@@H]1CC#N [Compound 347, 4-[4-({4-[(3S,5S)-5-({[7-(8-chloronaphthalen-1-yl)-4-[(3S)-3-(cyanomethyl)-4-(prop-2-enoyl)piperazin-1-yl]-5H,6H,8H-pyrido[3,4-d]pyrimidin-2-yl]oxy}methyl)-1-methylpyrrolidine-3-carbonyl]piperazin-1-yl}methyl)phenyl]-5-(2,4-dihydroxy-5-methylphenyl)-N-(2,2,2-trifluoroethyl)-1,2,4-triazole-3-carboxamide]	< 100	100 to 1000	< 100	> 1000
C=CC(=O)N1CCN(c2nc(OC[C@@H]3C[C@H](N4CCC(C(=O)N5CC6(CCN(Cc7ccc(-n8c(O)nnc8-c8cc(C(C)C)c(O)cc8O)cc7)CC6)C5)CC4)CN3C)nc3c2CCN(c2cccc4cccc(Cl)c24)C3)C[C@@H]1CC#N [Compound 348, 2-[(2S)-4-[7-(8-chloronaphthalen-1-yl)-2-{[(2S,4S)-4-{4-[7-({4-[3-(2,4-dihydroxy-5-isopropylphenyl)-5-hydroxy-1,2,4-triazol-4-yl]phenyl}methyl)-2,7-diazaspiro [3.5]nonane-2-carbonyl]piperidin-1-yl}-1-methylpyrrolidin-2-yl]methoxy}-5H,6-H,8H-pyrido[3,4-d]pyrimidin-4-yl]-1-(prop-2-enoyl)piperazin-2-yl]acetonitrile]	< 100	100 to 1000	< 100	100 to 1000
C=CC(=O)N1CCN(c2nc(OC[C@@H]3C[C@H](C(=O)N[C@@H]4CCCN(Cc5ccc(-n6c(O)nnc6-c6cc(C(C)C)c(O)cc6O)cc5)C4)CN3C)nc3c2CCN(c2cccc4cccc(Cl)c24)C3)C[C@@H]1CC#N [Compound 229, (3S,5S)-5-({[7-(8-chloronaphthalen-1-yl)-4-[(3S)-3-(cyanomethyl)-4-(prop-2-enoyl)piperazin-1-yl]-5H,6H,8H-pyrido[3,4-d]pyrimidin-2-yl]oxy}methyl)-N-[(3R)-1-({4-[3-(2,4-dihydroxy-5-isopropylphenyl)-5-hydroxy-1,2,4-triazol-4-yl]phenyl}methyl)piperidin-3-yl]-1-methylpyrrolidine-3-carboxamide]	< 100	> 1000	< 100	> 1000
C=C(F)C(=O)N1CCN(c2nc(OCCN3CCN(C(=O)C4CCN(Cc5ccc(-n6c(O)nnc6-c6cc(C(C)C)c(O)cc6O)cc5)CC4)CC3)nc3c2CCN(c2cccc4cccc(Cl)c24)C3)C[C@@H]1CC#N [Compound 224, (S)-2-(4-(7-(8-chloronaphthalen-1-yl)-2-(2-(4-(1-(4-(3-(2,4-dihydroxy-5-isopropylphenyl)-5-hydroxy-4H-1,2,4-triazol-4-yl)benzyl)piperidine-4-carbonyl)piperazin-1-yl)ethoxy)-5,6,7,8-tetrahydropyrido[3,4-d]pyrimidin-4-yl)-1-(2-fluoroacryloyl)piperazin-2-yl)acetonitrile]	> 1000	100 to 1000	< 100	> 1000

The remaining lines, values ahead:

IC50 (KRAS(G12C) [1]) [nM]	EC50 [2] [nM]	IC50 (HSP90a protein) [nM]	DC50 (KRAS(G12C) [3]) [nM]	SMILES
100 to 1000	> 1000	< 100	> 1000	C=CC(=O)N1CCN(c2nc(OCC3CN(C(=O)C4CCN(Cc5ccc(-n6c(C(=O)NCC(F)(F)F)nnc6-c6cc(C)c(O)cc6O)cc5)CC4)C3)nc3c2CCN(c2cccc4cccc(Cl)c24)C3)C[C@@H]1CC#N [Compound 219, (S)-4-(4-((4-(3-(((4-(4-acryloyl-3-(cyanomethyl)piperazin-1-yl)-7-(8-chloronaphthalen-1-yl)-5,6,7,8-tetrahydropyrido[3,4-d]pyrimidin-2-yl)oxy)methyl)azetidine-1-carbonyl)piperidin-1-yl)methyl)phenyl)-5-(2,4-dihydroxy-5-methylphenyl)-N-(2,2,2-trifluoroethyl)-4H-1,2,4-triazole-3-carboxamide]
< 100	> 1000	< 100	> 1000	C=CC(=O)N1CCN(c2nc(OCC3CN(Cc4ccc(-n5c(O)nnc5-c5cc(C)c(O)cc5O)cc4)C3)nc3c2CCN(c2cccc4cccc(Cl)c24)C3)C[C@@H]1CC#N [Compound 232, (S)-2-(1-acryloyl-4-(7-(8-chloronaphthalen-1-yl)-2-((1-(4-(3-(2,4-dihydroxy-5-methylphenyl)-5-hydroxy-4H-1,2,4-triazol-4-yl)benzyl)azetidin-3-yl)methoxy)-5,6,7,8-tetrahydropyrido[3,4-d]pyrimidin-4-yl)piperazin-2-yl)acetonitrile]
< 100	100 to 1000	< 100	> 1000	C=CC(=O)N1CCN(c2nc(OC[C@@H]3C[C@H](N4CCC(C(=O)N5CCN(Cc6ccc(-n7c(C(=O)NC)nnc7-c7cc(C(C)C)c(O)cc7O)cc6)CC5)CC4)CN3C)nc3c2CCN(c2cccc4cccc(Cl)c24)C3)C[C@@H]1CC#N [Compound 234, 4-{4-[(4-{1-[(3S,5S)-5-({[7-(8-chloronaphthalen-1-yl)-4-[(3S)-3-(cyanomethyl)-4-(prop-2-enoyl)piperazin-1-yl]-5H,6H,8H-pyrido[3,4-d]pyrimidin-2-yl]oxy}methyl)-1-methylpyrrolidin-3-yl]piperidine-4-carbonyl}piperazin-1-yl)methyl]phenyl}-5-(2,4-dihydroxy-5-isopropylphenyl)-N-methyl-1,2,4-triazole-3-carboxamide]
< 100	> 1000	< 100	> 1000	C=CC(=O)N1CCN(c2nc(OC[C@@H]3C[C@H](N4CCC(C(=O)N5CCN(Cc6ccc(-n7c(O)nnc7-c7cc(CC)c(O)cc7O)cc6)CC5)CC4)CN3C)nc3c2CCN(c2cccc4cccc(Cl)c24)C3)C[C@@H]1CC#N [Compound 233, 2-[(2S)-4-[7-(8-chloronaphthalen-1-yl)-2-{[(2S,4S)-4-{4-[4-({4-[3-(5-ethyl-2,4-dihydroxyphenyl)-5-hydroxy-1,2,4-triazol-4-yl]phenyl}methyl)piperazine-1-carbonyl]piperidin-1-yl}-1-methylpyrrolidin-2-yl]methoxy}-5H,6H,8H-pyrido[3,4-d]pyrimidin-4-yl]-1-(prop-2-enoyl)piperazin-2-yl]acetonitrile]
< 100	100 to 1000	< 100	100 to 1000	C=CC(=O)N1CCN(c2nc(OCCN3CCN(C(=O)C4CCN(Cc5ccc(-n6c(C(N)=O)nnc6-c6cc(C(C)C)c(O)cc6O)cc5)CC4)CC3)nc3c2CCN(c2cccc4cccc(Cl)c24)C3)C[C@@H]1CC#N [Compound 193, (S)-4-(4-((4-(4-(2-((4-(4-acryloyl-3-(cyanomethyl)piperazin-1-yl)-7-(8-chloronaphthalen-1-yl)-5,6,7,8-tetrahydropyrido[3,4-d]pyrimidin-2-yl)oxy)ethyl)piperazine-1-carbonyl)piperidin-1-yl)methyl)phenyl)-5-(2,4-dihydroxy-5-isopropylphenyl)-4H-1,2,4-triazole-3-carboxamide]
< 100	100 to 1000	< 100	100 to 1000	C=CC(=O)N1CCN(c2nc(OC[C@@H]3CC[C@H](CN4CCN(C(=O)C5CCN(Cc6ccc(-n7c(O)nnc7-c7cc(C)c(O)cc7O)cc6)CC5)CC4)N3C)nc3c2CCN(c2cccc4cccc(Cl)c24)C3)C[C@@H]1CC#N [Compound 319, 2-[(2S)-4-[7-(8-chloronaphthalen-1-yl)-2-{[(2S,5R)-5-({4-[1-({4-[3-(2,4-dihydroxy-5-methylphenyl)-5-hydroxy-1,2,4-triazol-4-yl]phenyl}methyl)piperidine-4-carbonyl]piperazin-1-yl}methyl)-1-methylpyrrolidin-2-yl]methoxy}-5H,6H,8H-pyrido [3,4-d]pyrimidin-4-yl]-1-(prop-2-enoyl)piperazin-2-yl]acetonitrile]
